Data on 7 compounds can be found in patent US7968577B2 (Bristol-Myers Squibb Company, priority 2006, dated 2011).

Assay [1] addresses T1, human glucocorticoid receptor (Homo sapiens, UniProt P04150).
T1 construct: purified human recombinant full-length glucocorticoid receptor; purchased Invitrogen Part #2893
T1 sequence (P04150 1-777): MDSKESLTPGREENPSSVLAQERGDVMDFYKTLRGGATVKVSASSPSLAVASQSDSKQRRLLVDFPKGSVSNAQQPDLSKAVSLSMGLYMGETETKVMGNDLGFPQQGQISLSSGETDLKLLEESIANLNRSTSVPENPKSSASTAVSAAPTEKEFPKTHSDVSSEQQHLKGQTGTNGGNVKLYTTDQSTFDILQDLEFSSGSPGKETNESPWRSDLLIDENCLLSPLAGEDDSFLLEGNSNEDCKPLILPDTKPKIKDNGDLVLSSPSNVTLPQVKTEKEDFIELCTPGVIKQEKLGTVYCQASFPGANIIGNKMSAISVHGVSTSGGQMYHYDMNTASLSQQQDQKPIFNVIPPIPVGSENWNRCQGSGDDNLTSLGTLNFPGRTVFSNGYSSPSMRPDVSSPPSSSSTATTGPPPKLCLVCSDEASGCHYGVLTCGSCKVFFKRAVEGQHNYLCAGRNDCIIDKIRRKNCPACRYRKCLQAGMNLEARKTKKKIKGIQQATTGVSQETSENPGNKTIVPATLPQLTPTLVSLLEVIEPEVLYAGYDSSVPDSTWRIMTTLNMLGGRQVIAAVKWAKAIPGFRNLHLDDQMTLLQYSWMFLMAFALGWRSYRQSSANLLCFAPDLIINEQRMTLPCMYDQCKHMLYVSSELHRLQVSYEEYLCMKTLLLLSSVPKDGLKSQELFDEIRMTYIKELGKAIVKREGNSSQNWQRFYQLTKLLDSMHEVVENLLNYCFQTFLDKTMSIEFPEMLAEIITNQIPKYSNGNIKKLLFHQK
The assay is described as follows: Glucocorticoid Receptor Binding Assay (I), fluorescence polarization competitor kit (Fluormone GS Red). Particulars: GR Binding Assay (I). As to the method: Glucocorticoid Receptor Binding Assay (I)^a
In order to assess the affinity of test compounds for the human glucocorticoid receptor, a commercially available kit was used (Glucocorticoid Receptor Competitor Assay Kit, Invitrogen Part #2893). Briefly, purified human recombinant full-length glucocorticoid receptor (2 nM) was mixed with fluorescently labeled glucocorticoid (1 nM Fluormone GS Red) in the presence or absence of test compound. After two hour incubation at room temperature in the dark, the fluorescence polarization (FP) of the samples was measured. […] Test compounds were analyzed in the concentration range from 8.5 E-05 μM to 5 μM.
In general terms: Fluorescence polarisation rises when a labelled molecule tumbles more slowly, as on binding a larger partner.

Assay [2] concerns the target T2, human full-length glucocorticoid receptor (Homo sapiens, UniProt P04150).
T2 construct: recombinantly expressed human full-length glucocorticoid receptor; purchased PanVera Co., Madison, Wis; P2816
T2 sequence (P04150 1-777): T1 sequence (P04150 1-777)
The assay is described as follows: Glucocorticoid Receptor Binding Assay (II), fluorescence polarization competitor kit (Fluormone GS1). Particulars: GR Binding Assay (II). Put shortly: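 Cell lysate with recombinant receptor incubated with 1 nM Fluormone GS1 tracer, with or without test compound, for one hour at room temperature. Binding read as displacement by fluorescence polarization.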

Consider `Cc1cccc(C(c2ccc(N3CCOCC3)cc2)C(C)(C)C(=O)Nc2nncs2)c1` (centres unmarked) [Example 235, 2,2-dimethyl-3-(3-methylphenyl)-3-(4-(4-morpholinyl)phenyl)-N-1,3,4-thiadiazol-2-ylpropanamide], for which the Ki is 5.19 nM in assay [1] and 13.6 nM in assay [2].

For the compound `CC(C)(C(=O)Nc1nccs1)[C@H](c1ccccc1)c1ccc(O)cc1` [Example 326, (3R)-3-(4-hydroxyphenyl)-2,2-dimethyl-3-phenyl-N-1,3-thiazol-2-ylpropanamide], the Ki was 18.7 nM in assay [1] and 12.9 nM in assay [2]. The corresponding values for `CC(C)(C(=O)Nc1nccs1)C(c1ccc(N2CCOCC2)cc1)c1cccc(F)c1` (single isomer, unassigned) [Example 254, 3-(3-fluorophenyl)-2,2-dimethyl-3-(4-(4-morpholinyl)phenyl)-N-1,3-thiazol-2-ylpropanamide] are 104 nM and 25.8 nM. The corresponding values for `CC(C)(C(=O)Nc1nncs1)C(c1ccc(N2CCOCC2)cc1)c1cccc(F)c1` (single isomer, unassigned) [Example 256, 3-(3-fluorophenyl)-2,2-dimethyl-3-(4-(4-morpholinyl)phenyl)-N-1,3,4-thiadiazol-2-ylpropanamide] are 125 nM and 121 nM. `COc1ccc([C@@H](c2ccccc2)C(C)(C)C(=O)Nc2nncs2)cc1Br` [Example 292, (3R)-3-(3-bromo-4-(methyloxy)phenyl)-2,2-dimethyl-3-phenyl-N-1,3,4-thiadiazol-2-ylpropanamide] showed a Ki in assay [1] of 24.5 nM. The same measure, in the same setting: with `COc1ccccc1-c1ccc(C(CC(C)C)C(C)(C)C(=O)Nc2nncs2)cc1` (centres unmarked) [Example 435, 3-(2′-methoxy-4-biphenylyl)-2,2,5-trimethyl-N-1,3,4-thiadiazol-2-ylhexanamide] the figure was 10.7 nM; with `COc1ccc(C(c2ccccc2)C(C)(C)C(=O)Nc2nncs2)cc1C` (single isomer, unassigned) [Example 294, 2,2-dimethyl-3-(3-methyl-4-(methyloxy)phenyl)-3-phenyl-N-1,3,4-thiadiazol-2-ylpropanamide], 9.22 nM.

Broadly, the Ki is a dissociation constant, usually derived from enzyme kinetics or from competition with a known ligand.
